Marks after values point to notes of the source that are not given here.
Test system: male rats with cytopenia
Assay: Hemostimulating activity: general analysis of the blood of male rats with cyclophosphan cytopenia
Type: in vivo
[1] = 3 days after cyclophosphan 120 mg/kg
[2] = 7 days after cyclophosphan 120 mg/kg
[3] = 14 days after cyclophosphan 120 mg/kg

O=C([O-])[O-].[Li+].[Li+] [preparation 3, lithium carbonate]
Erythrocytes [1]: 3.4 ± 0.29 10^12/l
Leucocytes [1]: 3.22 ± 0.11* 10^9/l
Lymphocytes [1]: 49.7 ± 1.6 %
Reticulocytes [1]: 1.1 ± 0.1%
Segmented neutrophils [1]: 31 ± 1.7 %
Erythrocytes [2]: 3.4 ± 0.29 10^12/l
Leucocytes [2]: 3.22 ± 0.11* 10^9/l
Lymphocytes [2]: 49.7 ± 1.6 %
Reticulocytes [2]: 1.1 ± 0.1%
Segmented neutrophils [2]: 31 ± 1.7 %
Erythrocytes [3]: 4.7 ± 0.27 10^12/l
Leucocytes [3]: 5.2 ± 0.26** 10^9/l
Lymphocytes [3]: 70.3 ± 0.9%
Reticulocytes [3]: 1.3 ± 0.3%
Segmented neutrophils [3]: 15.0 ± 2.6 %

CC(=O)N[C@@H](CSSC[C@H](NC(C)=O)C(=O)O)C(=O)O [preparation 4, N-acetyl-L-cysteine disulfide]
Erythrocytes [1]: 3.2 ± 0.33 10^12/l
Leucocytes [1]: 3.47 ± 0.08* 10^9/l
Lymphocytes [1]: 52.5 ± 1.3 %
Segmented neutrophils [1]: 31 ± 1.8 %
Erythrocytes [2]: 3.2 ± 0.33 10^12/l
Leucocytes [2]: 3.47 ± 0.08* 10^9/l
Lymphocytes [2]: 52.5 ± 1.3 %
Segmented neutrophils [2]: 31 ± 1.8 %
Erythrocytes [3]: 4.1 ± 0.21 10^12/l
Leucocytes [3]: 5.1 ± 0.22** 10^9/l
Lymphocytes [3]: 71.0 ± 1.6%
Reticulocytes [3]: 1.2 ± 0.4%
Segmented neutrophils [3]: 13.6 ± 1.9 %

— US20130289108A1, “Palladium-Copper Catalysts for the Homogeneous Selective Oxidation of Thiol Groups” (priority 2011, published 2013)
